The values that follow come from US7332615B2, “Hydrophilic analogs of 4,8-dihydrobenzodithiophene-4,8-diones as anticancer agents” (Industrial Technology Research Institute, priority 2004, dated 2008).

Molecules are shown by their SMILES. Where a name gives a salt, the structure may show the parent alone. Read-outs that look alike come from different tables or passages of the source.

The subject of one series is lung carcinoma (A-549). The series is described as follows: Cytotoxicity Assays Method C, A-549. Type of series: cell-based. The note with it: read-out: IC50 A549.
In series [1] the test system is epidermoid carcinoma of the nasopharynx (KB). The series can be described thus: Cytotoxicity Assays Method C, KB. As to conditions: read-out: IC50 KB. The series is classed as cell-based.
Series [2] concerns ileocecal carcinoma (HCT-8). The series is described as follows: Cytotoxicity Assays Method C, HCT-8. As to conditions: read-out: IC50 HCT-8. The series is classed as cell-based.
Series [3] concerns p-gp-expressing epidermoid carcinoma of the nasopharynx (KB-VIN). The series can be described thus: Cytotoxicity Assays Method C, KB-VIN. The series is classed as cell-based. As to conditions: for IC50: 50% reduction in cell number after 72 hr of incubation; for activity against the MDR cell line KB-VIN (in words): summary of Table 3. From the text:
Cytotoxicity Assays Method C (KB, KB-VIN, AS49, HCT-8, PC-3) [K. H. Lee et. al. Planta Med. 54, 308-312 (1998), Monk A et. al. J. Natl. Cancer Inst. 83, 757-766 (1991).] The cell lines included epidermoid caninoma of the nasopharynx (KB), p-gp-expressing epidermoid caninoma of the nasopharynx (KB-VIN), lung carcinoma (A-549), ileocecal carinoma (HCT-8) and prostate cancer (PC-3) cell lines.

In another series the test system is prostate cancer (PC-3). The series can be described thus: Cytotoxicity Assays Method C, PC-3. Type of series: cell-based. As to conditions: for IC50: read-out: IC50 PC-3; for activity against the androgen-insensitive prostate cancer cell line PC-3 (in words): PC-3, summary of Table 3.
A short description of the next series: Water solubility. The series is classed as physicochemical. The note with it: water; in H2O.
The test system of series [4] is Human promyeloid leukemia HL-60 cells. The series is described as follows: Cytotoxicity Assays Method B (MTT proliferation assay), HL-60. Type of series: cell-based. The note with it: for IC50: Homo sapiens, read-out: IC50 (concentration at which 50% of the cells are inhibited from growing). Here is the method: Cytotoxicity Assays Method B (HL-60) [H. M. Chen et al. Chin. Pharm. J. 53, 157-167 (2001)]
Human promyeloid leukemia HL-60 cells were obtained from the American Type
Culture Collection (Manassas, Va., USA) and the Culture Collection and Research Center(CCRC) (Tai wan, ROC). Human promyeloid leukemia HL-60 cells were cultured in suspension in RPMI-1640 medium (GIBCO, Grand Is land, USA), containing 10% fetal bovine se rum (GIBCO, Grand Is land, USA), 100 unit/mL penicillin, […] streptomycin and 1% L-glutamine at 37° C. in a humidified atmosphere of 5% CO2 in air. Cells were split every day to maintain the cell numbers between 2−5×10^5/mL. Cell numbers were assessed by the standard procedure of leukocyte counting using a hemocytometer and cell viability was checked by the ability of cells to exclude Trypan blue.
Cellular proliferation was determined by the MTT [3-(4,5-dimethylthiazol-2-yl)-2,5-diphenyltetrazolium bromide] as say. Briefly, […] of MTT (5 mg/mL) was added to each well of 96-well plates containing 1×10^5 cells after treatment with different concentrations of samples for 4 days. The reaction was stopped after 2 h by adding […] of 0.04 N HCl in isopropanol and the OD570 nm was determined by a minicolorimetric reader. Each concentration treatment was performed in triplicate.

The mark [5] stands for this setting: Homo sapiens, A549, 72 h, A549, 50% reduction in cell number after 72 hr of incubation.
Setting [6] is: 72 h, KB, 50% reduction in cell number after 72 hr of incubation.
Where [7] appears, read: Homo sapiens, HCT-8, 72 h, HCT-8, 50% reduction in cell number after 72 hr of incubation.
The mark [8] stands for this setting: 72 h, PC-3, 50% reduction in cell number after 72 hr of incubation.
The mark [9] stands for this setting: 96 h, HL-60, MTT, treatment for 4 days.
Setting [10] is: A549, 50% reduction in cell number after 72 hr of incubation.
Setting [11] is: KB, 50% reduction in cell number after 72 hr of incubation.
Setting [12] is: PC-3, 50% reduction in cell number after 72 hr of incubation.
[13] abbreviates: HCT-8, 50% reduction in cell number after 72 hr of incubation.

`O=C([O-])CCCC(=O)OCc1cc2c(s1)C(=O)c1sccc1C2=O.[Na+]` [IIa-2-Na, Sodium mono-[1-(4,8-dioxo-4,8-dihydrobenzo[1,2-b:5,4-b′]dithiophen-2-yl)methyl]pentanedioate]: the IC50 with lung carcinoma (A-549) (setting [5]) stood at 940 nM; in series [1] (setting [6]) it was 1720 nM; in series [2] (setting [7]), 650 nM; in series [3], 1310 nM; in the series with prostate cancer (PC-3) (setting [8]) it was 890 nM. In the series “Water solubility”, the solubility – broadly, the concentration that dissolves in the medium under given conditions – was ≥ 1800 µg/mL.

As to `CC(OC(=O)CCC(=O)[O-])c1cc2c(s1)C(=O)c1sccc1C2=O.[Na+]` (stereo not shown) [IIb-1-Na, Sodium mono-[1-(4,8-dioxo-4,8-dihydroxybenzo-[1,2-b;5,4-b′]dithiophen-2-yl)-ethyl]succinate], the IC50 was 470 nM with lung carcinoma (A-549) (setting [5]); 550 nM in series [1] (setting [6]); 1830 nM in series [2] (setting [7]); 470 nM in series [3]; 370 nM with prostate cancer (PC-3) (setting [8]). Besides, the solubility in the series “Water solubility” was ≥ 3000 µg/mL.

Turning to `CC(OC(=O)CCCC(=O)O)c1cc2c(s1)C(=O)c1sccc1C2=O` (stereo not shown) [IIb-2, Mono-[1-(4,8-dioxo-4,8-dihydrobenzo[1,2-b:5,4-b′]dithiophen-2-yl)-ethyl]pentanedioate], the IC50 in series [4] (HL-60, 96 h) was found to be 250 nM; in the series with lung carcinoma (A-549) (Homo sapiens, A549, 72 h) it was 110 nM; in series [1] (72 h), 30 nM; in series [2] (Homo sapiens, HCT-8, 72 h) it was 190 nM; in series [3] it was 50 nM; in the series with prostate cancer (PC-3) (72 h), 60 nM. Also, the “activity against the MDR cell line KB-VIN (in words)” value in series [3] is given as “potent activity”. For the same compound, the “activity against the androgen-insensitive prostate cancer cell line PC-3 (in words)” value in the series on prostate cancer (PC-3) was “potent activity”.

Consider `CC(OC(=O)CCCC(=O)[O-])c1cc2c(s1)C(=O)c1sccc1C2=O.[Na+]` (stereo not shown) [IIb-2-Na, Sodium mono-[1-(4,8-dioxo-4,8-dihydroxybenzo[1,2-b;5,4-b′]dithiophen-2-yl)-ethyl]pentanedioate], for which the IC50 came to 1890 nM in the series on lung carcinoma (A-549) (setting [5]); 1360 nM in series [1] (setting [6]); 1890 nM in series [2] (setting [7]); 1130 nM in series [3]; 880 nM in the series on prostate cancer (PC-3) (setting [8]). Further, in the series “Water solubility”, the solubility was ≥ 9600 µg/mL.

With `CC(OCC(=O)O)c1cc2c(s1)C(=O)c1ccsc1C2=O` (stereo not shown) [IX, 1-(4,8-Dioxo-4,8-dihydroxybenzo[1,2-b:4,5-b′]-dithiophen-2-yl-ethoxy)-acetic acid], the IC50 in series [4] (setting [9]) was 2580 nM; with lung carcinoma (A-549) (setting [10]) it was 2600 nM; in series [1] (setting [11]) it was 19800 nM; in series [2] (setting [7]), 240 nM; in series [3], 18200 nM; in the series on prostate cancer (PC-3) (setting [12]), 2510 nM.

With `CC(OCC(=O)[O-])c1cc2c(s1)C(=O)c1ccsc1C2=O.[Na+]` (stereo not shown) [IX-Na, Sodium 1-(4,8-dioxo-4,8-dihydroxybenzo[1,2-b:4,5-b′]-dithiophen-2-yl-ethoxy)-acetate], the IC50 in the series on lung carcinoma (A-549) (setting [10]) is 260 nM; in series [1] (setting [11]), 1110 nM; in series [2] (setting [13]) it was 220 nM; in series [3] it was 1000 nM; with prostate cancer (PC-3) (setting [12]), 140 nM. Besides, the solubility in “Water solubility” was ≥ 6000 µg/mL.

For `CC(OC(=O)CCC(=O)[O-])c1cc2c(s1)C(=O)c1ccsc1C2=O.[Na+]` (stereo not shown) [VII-1-Na, Sodium mono-[1-(4,8-dioxo-4,8-dihydroxybenzo-[1,2-b;4,5-b′]dithiophen-2-yl)-ethyl]succinate], the IC50 in the series on lung carcinoma (A-549) (setting [5]) turned out to be 2220 nM; in series [1] (setting [6]), 2140 nM; in series [2] (setting [7]), 1440 nM; in series [3] it was 1960 nM; in the series on prostate cancer (PC-3) (setting [8]), 730 nM. In addition, the solubility in the series “Water solubility” is ≥ 10000 µg/mL.

Take `CC(OC(=O)CCCC(=O)O)c1cc2c(s1)C(=O)c1ccsc1C2=O` (stereo not shown) [VII-2, Mono-[1-(4,8-dioxo-4,8-dihydroxybenzo[1,2-b;4,5-b′]dithiophen-2-yl)-ethyl]pentanedioate]: the IC50 in series [4] (setting [9]) was found to be 280 nM; in the series on lung carcinoma (A-549) (Homo sapiens, A549, 72 h) it was 510 nM; in series [1] (72 h), 80 nM; in series [2] (Homo sapiens, HCT-8, 72 h), 480 nM; in series [3], 240 nM; in the series with prostate cancer (PC-3) (72 h), 60 nM. Moreover, the “activity against the MDR cell line KB-VIN (in words)” value in series [3] was “potent activity”. Also, the “activity against the androgen-insensitive prostate cancer cell line PC-3 (in words)” value in the series on prostate cancer (PC-3) was “potent activity”.

With `CC(OC(=O)CCCC(=O)[O-])c1cc2c(s1)C(=O)c1ccsc1C2=O.[Na+]` (stereo not shown) [VII-2-Na, Sodium mono-[1-(4,8-dioxo-4,8-dihydroxybenzo[1,2-b;4,5-b′]dithiophen-2-yl)-ethyl]pentanedioate], the IC50 stood at 2520 nM with lung carcinoma (A-549) (setting [5]); 450 nM in series [1] (setting [6]); 880 nM in series [2] (setting [7]); 680 nM in series [3]; 100 nM with prostate cancer (PC-3) (setting [8]). Also, in “Water solubility”, the solubility was ≥ 3400 µg/mL.

For `O=C(O)c1cc2c(s1)C(=O)c1sccc1C2=O` [XI-NH4, Ammonium 4,8-dioxo-4,8-dihydrobenzo-[1,2-b:5,4-b′]dithiophene-2-carboxylate], the IC50 in the series with lung carcinoma (A-549) (setting [10]) is > 70000 nM; in series [1] (setting [11]), 36000 nM; in series [2] (setting [13]), > 70000 nM; in series [3], 36000 nM; in the series with prostate cancer (PC-3) (setting [12]), > 70000 nM. Besides, the solubility in the series “Water solubility” is ≥ 10000 µg/mL.

Regarding `O=C(O)c1cc2c(s1)C(=O)c1ccsc1C2=O` [XIV-NH4, Ammonium 4,8-dioxo-4,8-dihydrobenzo-[1,2-b;4,5-b′]dithiophene-2-carboxylate], the IC50 with lung carcinoma (A-549) (setting [10]) is 16200 nM; in series [1] (setting [11]), 36000 nM; in series [2] (setting [13]), 26300 nM; in series [3], 36000 nM; in the series on prostate cancer (PC-3) (setting [12]) it was 13300 nM. The compound further displayed a solubility in the series “Water solubility” of 4000 µg/mL.

With `CN(C)CCNC(=O)c1cc2c(s1)C(=O)c1ccsc1C2=O` [XV-2-H3PO4, 4,8-dioxo-4,8-dihydrobenzo[1,2-b;4,5-b′]dithiophene-2-carboxylate-(2-dimethyl-aminoethyl)-amide phosphoric acid salt], the “cytotoxicity against HL-60 (in words)” value in series [4] (HL-60, summary of Table 2) is recorded as “the most potent one”. Also, the IC50 in series [4] (setting [9]) is 50 nM; in the series on lung carcinoma (A-549) (setting [5]), 10 nM; in series [1] (setting [6]), 60 nM; in series [2] (setting [7]) it was 10 nM; in series [3] (Homo sapiens, KBVIN, 72 h), 10 nM; in the series on prostate cancer (PC-3) (setting [8]), 10 nM. For the same compound, in “Water solubility”, the solubility was ≥ 4000 µg/mL.

Regarding `C[C@H](NC(=O)c1cc2c(s1)C(=O)c1ccsc1C2=O)C(=O)O` [XVI, (L)-2-{(4,8-Dioxo-4,8-dihydrobenzo-[1,2-b;4,5-b′]dithiophene-2-carbonyl)-amino}-propionic acid], the IC50 in series [4] (setting [9]) was determined as 750 nM.

With `C[C@H](NC(=O)c1cc2c(s1)C(=O)c1ccsc1C2=O)C(=O)[O-].[Na+]` [XVI-Na], the IC50 in the series on lung carcinoma (A-549) (setting [5]) is 540 nM; in series [1] (setting [6]) it was 1760 nM; in series [2] (setting [7]), 510 nM; in series [3] (Homo sapiens, KBVIN, 72 h) it was 540 nM; in the series with prostate cancer (PC-3) (setting [8]), 170 nM. Also, in the series “Water solubility”, the solubility is ≥ 3200 µg/mL.
